Like-named read-outs stand apart in the source and are kept apart here.
How the values were obtained:
P. falciparum apicoplast = assay: Immunofluorescence assay of apicoplast biogenesis on treated blood-stage parasites; assay type: cell-based, Plasmodium falciparum; conditions: 48 h, 0.2 µM
Method: (§1) To determine the impact of (3i) on apicoplast biogenesis, parasites were treated for 48 h with 0.2 µM of (3i) or 0.2 µM of (2i) (a control of (3i) for which the active CCl3 was replaced by a methyl CH3 group) and compared to untreated parasites by immunofluorescence assay. […] In order to determine if the apicoplast is the main target of (3i), we performed a growth assay over three life cycles to assess a potential delayed death effect, one of the major signature for compounds affecting apicoplast. […] The second interpretation could be that, unlike chloramphenicol or doxycycline, which cause a delayed death phenotype on Plasmodium, (3i) could act like fosmidomycin or actinonin and cause a rapid death phenotype.
Plasmodium falciparum blood stage parasites were maintained at 2% hematocrit in 1640 RPMI-HEPES, supplemented with 5% AlbuMAX II (GIBCO) and 0.25% gentamycin. Parasites were grown sealed Perspex chambers gassed with beta mix gas (1% O2, 5% CO2 and 94% N2) at 37 °C and maintained on 48-h cycles. Cultures were tightly synchronized at ring stage using sorbitol treatment (5% v/v) as previously described.
Prior to the treatment, parasites were synchronized using 5% sorbitol. After 48 h treatment ([…] or DMSO) parasites were fixed using 4% paraformaldehyde (PFA) and 0.0075% glutaraldehyde for 30 min at room temperature. […]

[1] = system: K1 chloroquine and pyrimethamine-resistant P. falciparum strain; assay: In vitro antiplasmodial evaluation (SYBR Green I); assay type: cell-based, Plasmodium falciparum; conditions: K1 strain, 72 h incubation, three independent experiments, read-out: EC50 PfK1 (µM) ± SD
Method: For all molecules, the selectivity index was calculated as following SI = CC50/EC50.
It was maintained in continuous culture, as described previously by Trager and Jensen. Cultures were maintained in fresh A+ human erythrocytes at 2.5% hematocrit in complete medium (RPMI 1640 with 25 mM HEPES, 25 mM NaHCO3, 10% of A+ human serum) at 37 °C under reduced O2 atmosphere (gas mixture 10% O2, 5% CO2, and 85% N2). Parasitemia was maintained daily between 1 and 3%. The P. falciparum drug susceptibility test was carried out by comparing quantities of DNA in treated and control cultures of parasite in human erythrocytes according to an SYBR Green I fluorescence-based method using a 96-well fluorescence plate reader. Compounds, previously dissolved in DMSO (final concentration less than 0.5% v/v), were incubated in a total assay volume of 200 μL (RPMI, 2% hematocrit and 0.4% parasitemia) for 72 h in a humidified atmosphere (10% O2 and 5% CO2) at 37 °C, in 96-well flat bottom plates. Duplicate assays were performed for each sample. After incubation, plates were frozen at […] for 24 h. Then, the frozen plates were thawed for 1 h at 37 °C. Fifteen µL of each sample were transferred to 96-well flat bottom non-sterile black plates (Greiner Bio-one, Kremsmünster, Austria), already containing 15 µL of the SYBR Green I lysis buffer (2X SYBR Green I, 20 mM Tris base pH 7.5, 20 mM EDTA, 0.008% w/v saponin, 0.08% w/v Triton X-100). […] Plates were incubated for 15 min at 37 °C and then read on a TECAN Infinite F-200 spectrophotometer with excitation and emission wavelengths at 485 and 535 nm, respectively.

[2] = system: Plasmodium falciparum blood stage parasites; assay: Growth assay over three life cycles (delayed death); assay type: cell-based; conditions: 0.2 µM; 48, 96, 144 h
Method: as §1
To observe a potential effect of delayed death of the molecule on the parasite, Plasmodium was maintained on three life cycles (48 h). […] Fluorescence from each well was measured with TECAN infinite M200 plate reader (excitation: 485 nm, emission: 538 nm and integration time: 1000 μs). […] A graph was obtained by performing the ration of the treated culture fluorescence intensity on the untreated culture fluorescence intensity (n = 3).

[3] = system: P. falciparum (NF135 strain) hepatic exoerythrocytic forms; assay: Liver stage development in infected primary human hepatocytes; assay type: cell-based, Plasmodium falciparum; conditions: 3i 0.9-30 µM, ATQ 25 nM; 6 or 12 days post-infection
Method: The effect of (3i) on the hepatic stage of P. falciparum was next studied in order to know if (3i) was active against another stage of P. falciparum cycle. Cryopreserved primary human hepatocytes were infected with 30,000 freshly extracted P. falciparum sporozoites and simultaneously treated with a dose range (0.9–30 µM) of (3i). Atovaquone (ATQ) was used as a positive parasite-killing control at 25 nM.
P. falciparum (NF135 strain) sporozoites were isolated by dissection of the salivary glands of infected A. stephensi 14–21 days after an infective blood meal (Department of medical microbiology, University Medical Centre, St Radboud, Nijmegen Netherland). All infected salivary glands were removed by hand dissection, crushed in a potter for sporozoites isolation, and filtrated through a 40 μm filter to remove mosquito debris (Cell Strainer, BD BioSciences, Franklin Lakes, NJ, USA). The sporozoites were counted using a disposable Glasstic microscope slide (KOVA, Garden Grove, CA, USA).
One day before hepatocyte thawing, 96-well plates were coated by a Corning®® collagen solution (50 µg/mL rat tail type I collagen in 0.02N acid acetic) over night at room temperature. The next day, the wells were washed twice by PBS solution. Cryopreserved primary human hepatocytes (LONZA, Basel, Swiss) were seeded in 96-well plates with a pre-determined seeding dose that gave a single dense layer of attached hepatocytes. Four days post-seeding, each plate well was infected with 30,000 freshly extracted Plasmodium falciparum sporozoites. […]
Hepatocyte cultures were fixed with 4% paraformaldehyde solution (PFA, Invitrogen) for 10 min. […] Images were analyzed and prepared with ImageJ software. Apicoplast morphology was observed and quantified by eye under a confocal microscope.
Upon immunostaining of parasites, the study plates were scanned using a CellInsight high-content screening platform equipped with the Studio HCS software (Thermo Fisher Scientific, Waltham, MA, USA). […] The number of host hepatocyte nuclei per well was counted by the system as a measure of toxicity of 3i towards the liver cells. […]

HepG2 = conditions: Figure 2; cited from earlier work
[4] = system: Pf3D7 (3D7 chloroquine-sensitive strain); conditions: Figure 2; cited from earlier work

With Cc1nc2ccccc2nc1Oc1ccc([N+](=O)[O-])cc1 [2i, 2-Methyl-3-(4-nitrophenoxy)quinoxaline] the “Effect on apicoplast biogenesis (immunofluorescence)” value (P. falciparum apicoplast) was “absence of effect”, the EC50 [1] was > 16 µM and the EC50 ([1]; Plasmodium falciparum, K1, 72 h) was > 25 µM. The “Parasite growth over three life cycles (ratio treated/untreated)” value [2] was “absence of effect”.

With O=C1C(O)=C([C@H]2CC[C@H](c3ccc(Cl)cc3)CC2)C(=O)c2ccccc21 [ATQ, Atovaquone, reference compound] the “Effect on exoerythrocytic forms (EEF or schizont) size and numbers” value [3] was “completely clear all parasites from the culture”.

For Brc1ccc(Nc2nc3ccccc3nc2Nc2ccc(Br)cc2)cc1 [MMV007224], the CC50 (HepG2) is listed as 5.1 µM and the EC50 [4] is listed as 1.06 µM.
